In article PMC3929521, “Optimization (Central Composite Design) and Validation of HPLC Method for Investigation of Emtricitabine Loaded Poly(lactic-co-glycolic acid) Nanoparticles: In Vitro Drug Release and In Vivo Pharmacokinetic Studies” (The Scientific World Journal, 2014):
Like-named read-outs stand apart in the source and are kept apart here.

What was measured:
in vivo = assay: in vivo
Experimental: The pharmacokinetic studies were carried out in healthy male Wistar rats (250–300 g). The animals were fasted overnight before dosing with free access to water. The animals were acclimatized to laboratory conditions over the week before experiments and fed with standard rat diet, under controlled conditions of a 12 : 12 h light : dark cycle, with a temperature of 22 ± 3°C and relative humidity of 50 ± 5% RH. The experimental protocol was approved by the Institutional Animal Ethical Committee (AACP/IAEC/Jun-2012-02).
Eighteen rats were randomly separated into three groups (six animals in each group).
At regular time intervals 0, 1, 2, 4, 6, 8, 12, and every 24 h, for 10 days, samples of blood were withdrawn (100 μL) from the retroorbital plexus by microcapillary technique under light ether anesthesia into heparinized microcentrifuge tubes (50 units heparin/mL of blood).
The supernatant was decanted into a China dish and evaporated to dryness at room temperature. This was further reconstituted with 100 μL of mobile phase and vortexed for 30 s and 20 μL was injected into an HPLC system. Emtricitabine was detected at a wavelength of 280 nm. The proficiency of nanoparticulate formulations was appraised by administering pure drug orally and measuring the blood levels at 0, 0.25, 0.5, 1.5, 2, 3, 4, 6, 8, 12 and 24 h.

[1] = rat plasma, n = 6
Experimental: Bench-top stability was investigated to ensure that emtricitabine was not degraded in plasma samples at room temperature for a time period to cover the sample preparation. It was measured by divulging the QC samples to ambient laboratory conditions for 10 h. Freeze-thaw stability was measured over three cycles. Because of the need for occasional delayed injection of extraction samples, the stability of reconstituted samples was assessed at ambient temperature for 24 h. The freezer storage stability of emtricitabine in rat plasma at −20°C was evaluated by assaying QC samples at the beginning and one week later. All stability QC samples were analyzed in six replicates.

[2] = male Wistar rats, oral, 15 mg/kg/rat, n = 6, mean ± SD, listed as Free emtricitabine, 15 mg/kg
[3] = male, Wistar, rat, plasma, po, 15 mg/kg
[4] = Bench-top stability, ambient temperature (25°C) for 4 h, spiked 0.1 μg/mL
[5] = Bench-top stability, ambient temperature (25°C) for 4 h, spiked 0.8 μg/mL
[6] = Bench-top stability, ambient temperature (25°C) for 4 h, spiked 2.0 μg/mL
[7] = Freeze-thaw stability, after three freeze-thaw cycles, spiked 0.1 μg/mL
[8] = Freeze-thaw stability, after three freeze-thaw cycles, spiked 0.8 μg/mL
[9] = Freeze-thaw stability, after three freeze-thaw cycles, spiked 2.0 μg/mL
[10] = One-week stability, stored at −16°C, spiked 0.1 μg/mL
[11] = One-week stability, stored at −16°C, spiked 0.8 μg/mL
[12] = One-week stability, stored at −16°C, spiked 2.0 μg/mL

Structure (SMILES): Nc1nc(=O)n([C@@H]2CS[C@H](CO)O2)cc1F [Emtricitabine, 5-fluoro-1-(2R, 5S)-[2-(hydroxymethyl)-1,3-oxathiolan-5-yl]cytosine]
- AUMC0–∞ (in vivo; male Wistar rats, oral, 15 mg/kg/rat, n = 6, mean ± SD): 178.32 ± 15.095 µg/mL∗h
- AUC0–∞ (in vivo; [2]): 14.835 ± 0.450 µg/mL∗h
- t max (in vivo; [2]): 2.0 ± 0.006 h
- Cmax (in vivo; [3]): 1700 ± 17 ng/mL
- MRT (in vivo; [3]): 12 ± 0.67 h
- half-life (in vivo; [3]): 562 ± 34.8 min
- k el (in vivo; [3]): 2.06e-05 s⁻¹
- AUC(0-inf) (in vivo; male, Wistar, rat, plasma, po, 15 mg/kg, AUC0–∞, male Wistar rats, 15 mg/kg/rat, n = 6, mean ± SD): 14800 ng·h/mL
- t max (in vivo; male, Wistar, rat, plasma, po, 15 mg/kg, t max, male Wistar rats, 15 mg/kg/rat, n = 6, mean ± SD): ≤ 2 h
- AUC(0-inf) (in vivo; male, Wistar, rat, plasma, po, 15 mg/kg/rat, AUC0−∞ (Figure 6), Wistar rats, mean ± SEM): 14800 ± 184 ng·h/mL
- Accuracy [1, 4]: 96.0%
- Mean determined concentration [1, 4]: 0.096 µg/mL
- Accuracy [1, 5]: 97.87%
- Mean determined concentration [1, 5]: 0.783 µg/mL
- Accuracy [1, 6]: 97.20%
- Mean determined concentration [1, 6]: 1.944 µg/mL
- Accuracy [1, 7]: 99.00%
- Mean determined concentration [1, 7]: 0.099 µg/mL
- Accuracy [1, 8]: 99.37%
- Mean determined concentration [1, 8]: 0.795 µg/mL
- Accuracy [1, 9]: 99.75%
- Mean determined concentration [1, 9]: 1.995 µg/mL
- Accuracy [1, 10]: 93.00%
- Mean determined concentration [1, 10]: 0.093 µg/mL
- Accuracy [1, 11]: 93.25%
- Mean determined concentration [1, 11]: 0.746 µg/mL
- Accuracy [1, 12]: 95.55%
- Mean determined concentration [1, 12]: 1.911 µg/mL
